{"source": "patent US20230310435A1", "about": "“HOST DEFENSE PROTEIN (HDP) MIMETICS FOR PROPHYLAXIS AND/OR TREATMENT OF INFLAMMATORY DISEASES OF THE GASTROINTESTINAL TRACT” (priority 2015, published 2023)", "key": {"[1]": {"system": "LPS-induced CINC-3 release, NR8383 cells", "assay": "LPS-induced CINC-3 (CXCL2) release in NR8383 rat alveolar macrophages (ELISA)", "type": "cell-based", "conditions": "Macrophage, 8-hour brilacidin and LPS exposure, read-out: IC50, inhibition of LPS-induced CINC-3 release", "protocol": "To examine the effect of brilacidin on production in cells of cytokine-induced neutrophil chemoattractant-3 (CINC-3; CXCL2), rat alveolar macrophage (NR8383) cells were pretreated with a range of brilacidin concentrations for 45 minutes, followed by treatment with 1 μg/ml LPS from E. coli (Sigma, St. Louis, MO) for 8 hours in the presence of brilacidin. After 8 hours, supernatants were collected for CINC-3 measurement by ELISA. CINC-3 was measured using an immunoassay kit according to manufacturer's instructions (R&D Systems, Minneapolis, MN).\nPDE4 and PDE3 inhibition results in subsequent down-regulation of pro-inflammatory cytokines/chemokines and its regulators, and experiments were conducted to confirm such down-regulation by brilacidin in ex vivo cell-based assays. In these assays, cells were exposed to brilacidin 45 minutes before an 8-hour lipopolysaccharide (LPS) stimulation in the presence of brilacidin; cytokine/enzyme concentrations were determined by ELISA using a standard immunoassay kit."}, "[2]": {"system": "Ulcerative Proctosigmoiditis/Ulcerative Proctitis (UP/UPS)", "assay": "Phase 2 clinical trial CTIX-BRI-206 in Ulcerative Proctitis/Ulcerative Proctosigmoiditis", "type": "in vivo, human", "protocol": "In a Phase 2 study (CTIX-BRI-206), clinical remission (with Endoscopic response) was achieved after 6 weeks of treatment in >50% subjects in each treatment cohort (50 mg, 100 mg, and 200 mg brilacidin, as daily retention enema) (FIG. 21, Panel A). Inflammatory biomarkers IL-1β and IL-6 were reduced in colonic tissue biopsies collected at Week 6 (Day 42) compared to those biopsies collected at baseline (FIG. 21, Panel B)."}, "DSS-induced colitis": {"system": "DSS-induced colitis", "assay": "Dextran sulfate sodium (DSS)-induced acute colitis model", "type": "in vivo, male C57BL/6 mice", "protocol": "The efficacy of brilacidin administered was investigated in a murine model of chemically-induced acute colitis using dextran sulfate sodium (DSS). This was a different in vivo model of IBD to the testing performed in Examples 16 and 17 (where mucosal injury was induced by using acetic acid). DSS-induced colitis in mice is characterized by weight loss, bloody diarrhea, intestinal ulcerations and infiltrations with granulocytes. In mice, DSS was administered from Day 0 to Day 11, as a 5% (w/v) DSS solution in the drinking water of male C57BL/6 mice (Kim J J, et al., J. Vis. Exp., 2012, 60, 3678), to induce severe murine colitis. On Days 7-11, test compound brilacidin (400 mg/kg) or positive control 5-ASA (50 mg/kg) or water (negative control) were administered as a solution, per rectum. On Days 6, 10 and 11, rectal bleeding was assessed using a Hemoccult® kit and stool consistency was visually assessed; severity of symptoms were scored on a scale of 0 (normal) to 4 (severe). Level of pro-inflammatory cytokines interleukin (IL)-6 and IL-1β in distal colon tissue were determined from excised colons using conventional ELISA methods."}, "in vivo": {"assay": "in vivo", "set-up": "species or system male Balb/c mice", "conditions": "mouse, 10 mg/kg", "protocol": "Method for FIG. 12. […] The small intestine with content of each animal for were harvested and placed per animal per tissue into a tube. The small intestine with content samples were snap frozen in dry ice and then stored at −80° C. until bioanalysis. All the samples were labeled with detailed information such as study number, animal number, matrix, and time points of collection and date of collection. In addition, the extra animals obtained for the study, but not placed on study were used for collection of small intestine with content. The resulting small intestine with content samples were then applied to the development of the bioanalytical method and sample bioanalysis in this study. Bioanalytical analysis was performed on samples by LC-MS/MS.\nFor analyzing the contents of the small intestine, small intestine samples were homogenized by adding saline (1 g small intestine: 5 mL saline). Small intestine homogenates (50 μL) were transferred to tubes and 250 μL internal standard (IS) working solution (50 ng/mL Carvedilol) was added to each sample. After vortexing for 1 minute and centrifuging for 5 minutes at 15,000 rpm, 100 μL aliquots of supernatant were transferred to glass autosampler vials.\nMethod for FIG. 13. […] The ratios versus time are shown.\nAt 1 hour, the concentration in the small intestine peaked at 38,941±4703 ng/gram of tissue (FIG. 12)."}, "[3]": {"conditions": "by Day 11, brilacidin 400 mg/kg per rectum Days 7-11, p<0.001"}, "[4]": {"conditions": "end of study, brilacidin 400 mg/kg or 5-ASA 50 mg/kg per rectum Days 7-11"}}, "note": "Counter-ions that a name gives are not always drawn.", "data": [{"smiles": "N=C(N)NCCCCC(=O)Nc1cc(C(F)(F)F)cc(NC(=O)c2cc(C(=O)Nc3cc(C(F)(F)F)cc(NC(=O)CCCCNC(=N)N)c3O[C@@H]3CCNC3)ncn2)c1O[C@@H]1CCNC1", "note": "[PMX-30063, N^4,N^6-bis(2-((R)-pyrrolidin-3-yloxy)-3-((4-carbamoylbutyl)guanidine)-5-(trifluoromethyl)phenyl)pyrimidine-4,6-dicarboxamide tetrahydrochloride salt]", "values": [{"measurement": "IC50", "setting": "[1]", "value": 425, "unit": "nM"}, {"measurement": "IL-1β in colonic tissue biopsies vs baseline (in words)", "setting": "[2]; Week 6 (Day 42)", "value": "reduced"}, {"measurement": "IL-6 in colonic tissue biopsies vs baseline (in words)", "setting": "[2]; Week 6 (Day 42)", "value": "reduced"}, {"measurement": "subjects achieving clinical remission (with Endoscopic response)", "setting": "[2]; after 6 weeks, each cohort (50 mg, 100 mg, 200 mg, daily retention enema)", "value": "> 50", "unit": "%"}, {"measurement": "rectal bleeding score compared to DSS-treated control (in words)", "setting": "DSS-induced colitis; [3]", "value": "significant decrease"}, {"measurement": "stool consistency compared to DSS-treated control (in words)", "setting": "DSS-induced colitis; [3]", "value": "significantly more firm"}, {"measurement": "mean reduction in IL-1β in distal colon tissue compared to DSS-treated control group", "setting": "DSS-induced colitis; [4]", "value": 27, "unit": "%"}, {"measurement": "mean reduction in IL-6 in distal colon tissue compared to DSS-treated control group", "setting": "DSS-induced colitis; [4]", "value": 40, "unit": "%"}, {"measurement": "total exposure (AUC) in the blood upon oral administration", "setting": "in vivo; male, Balb/c", "value": "less than 0.5%"}, {"measurement": "Cmax", "setting": "in vivo; male, Balb/c, po", "value": 38900, "unit": "ng/g"}, {"measurement": "Kp", "setting": "in vivo; male, Balb/c, po", "value": "2240 to 4320"}, {"measurement": "Tmax", "setting": "in vivo; male, Balb/c, po", "value": 60, "unit": "min"}, {"measurement": "half-life", "setting": "in vivo; male, Balb/c, po", "value": 47.4, "unit": "min"}, {"measurement": "AUC(0-t)", "setting": "in vivo; po", "value": 86089, "unit": "ng·h/g"}, {"measurement": "AUC(0-∞)", "setting": "in vivo; po", "value": 89525, "unit": "ng·h/g"}, {"measurement": "MRT(0-∞)", "setting": "in vivo; po", "value": 1.52, "unit": "H"}]}]}
